Laboratory results reported in paper PMC8490629, “Metabolites of Procyanidins From Litchi Chinensis Pericarp With Xanthine Oxidase Inhibitory Effect and Antioxidant Activity” (Frontiers in Nutrition, 2021).
Like-named read-outs stand apart in the source and are kept apart here. Marks after values point to notes of the source that are not given here.

Columns and labels:
[1] = Hydroxyl radical scavenging activity
Description: Hydroxyl radical scavenging activity was assessed according to the method of Dong et al. ([42]) with modifications. The reagents and samples were added strictly obeying following order: 0.25 ml 1.5 mM phenanthroline ethanolic solution, 0.5 ml phosphoric acid buffer (pH = 7.4), 0.25 ml 1.5 mM freshly prepared ferrous sulfate solution, 0.5 ml sample (0–0.5 mg), and 0.25 ml 0.01% H2O2. The injured tubes in the experiment were prepared by the same reagents except samples, while control was carried out by adding sample without H2O2. The mixtures were shaken and incubated at 37°C for 1 h, and then measured at 536 nm. The hydroxyl radical scavenging activity was calculated using the following equation:
hydroxyl radical scavenging rate (%) =Asample-Ainjured/Acontrol-Ainjured ×100

xanthine oxidase = biological target: T1, xanthine oxidase (Bos taurus, UniProt P80457); experiment: Xanthine oxidase inhibition assay (uric acid production from xanthine, 295 nm); assay type: biochemical; conditions: for IC50: read-out: IC50 (μg/ml) xanthine oxidase (converted); for inhibition at 200 µg/mL: read-out: Inhibition (%) at 200 μg/ml
T1 construct: purchased Sigma (St. Louis, MO, USA)

[2] = Urinary excretion of procyanidins and metabolites in rats after oral LPPC (HPLC / LC-MS); assay type: in vivo, rat; conditions: for Urinary excretion, phenolic acids / Urinary excretion, procyanidin (% to oral dose): rat urine 0-24 h after oral LPPC 300 mg/kg, after glucuronidase/sulfatase deconjugation; for Urinary excretion as share of the oral intake: rat urine, oral LPPC 300 mg/kg bw
Description: Male Sprague-Dawley rats weighing 220 ± 20 g were randomly divided into two groups (n = 20) with 10 rats in each group. Prior to administration, animals were deprived of food for 12 h, but had access to deionized water. The LPPC was dissolved in physiological saline and administered orally to rats at a dose of 300 mg/kg body weight. In addition, the physiological saline was administered orally to the rats in another group as control. All the rats were placed in metabolic cages, each rat per cage (Jiayuan Technology Co. Ltd., Beijing, China). The samples of urine excreted from 0 to 24 h postadministration were collected from the bottom of the metabolic cage under chilled conditions using an ice bath and stored at −80°C before analysis, referring to the method described previously ([38]).
The sample of urine was centrifuged at 4,000 r/min for 10 min at 4°C, and the supernatant was collected. The supernatant was acidified to pH = 5.5 with 0.6 mol/l acetic acid and incubated at 37°C for 60 min in the presence of 10 KU β-glucuronidase with the activity of sulfatase. After further acidification to pH = 2 with 6 mol/l HCl, the samples were directly extracted by ethyl acetate × 3. The resulting supernatant was dried under vacuum by rotatory evaporation at 40°C until the ethyl acetate was completely removed and dissolved in 1 ml of 50% methanol. Then, the solution was purified by the solid phase extraction, and the residue was redissolved in methanol and analyzed by LC-MS as described by Li et al. with modifications ([39]).
Selected samples were analyzed on an Agilent 1100 LC-ESI-MS system (Agilent Technologies Co. Ltd., Foster City, California, USA) to identify metabolites in urine. A VP-ODS column (150 × 4.6 mm ID, 5 μm particle size, Shimadzu Co., Kyoto, Japan) was used and 20 μl solution of the sample was injected. The mobile phases consisted of 0.4% (v/v) aqueous acetic acid as A and acetonitrile as B with the following linear gradient: from 5 to 35% B in the first 40 min, from 35 to 50% B in the next 5 min, from 50 to 80% B in the next 5 min, and from 80 to 5% B in the next 5 min, and re-equilibrated with 5% B for 5 min before next injection. The flow rate was 0.2 ml/min and the absorbance of the eluate was monitored at 280 nm. Mass spectra were collected using an electrospray ionization (ESI) ion source in the negative mode under the following conditions: orifice voltage, −30 V; nebulizing pressure, 30 psi; heat capillary temperature, 275°C; and mass range, m/z 100-1,200.

[3] = DPPH radical scavenging activity
Description: 1, 1-Diphenyl-2-picrylhydrazyl radical scavenging activity was determined referring to the method described previously ([41]). Litchi pericarp and phenolic acids were dissolved in 1.0 ml of deionized water at various concentrations ranging from 2.0 to 100.0 μg/ml. Then, the solution of the sample was mixed with 1.0 ml of freshly prepared 0.2 mM DPPH ethanolic solution. Control in the experiment was prepared by the same reagent without the sample. All the tubes were incubated at 37°C for 30 min in the dark, and the final solution was recorded at 517 nm. The DPPH radical scavenging activity was calculated using the following equation:
DPPH radical scavenging rate (%) =(Acontrol-Asample)/Acontrol × 100

T1 sequence (P80457 2-1332 limits assumed): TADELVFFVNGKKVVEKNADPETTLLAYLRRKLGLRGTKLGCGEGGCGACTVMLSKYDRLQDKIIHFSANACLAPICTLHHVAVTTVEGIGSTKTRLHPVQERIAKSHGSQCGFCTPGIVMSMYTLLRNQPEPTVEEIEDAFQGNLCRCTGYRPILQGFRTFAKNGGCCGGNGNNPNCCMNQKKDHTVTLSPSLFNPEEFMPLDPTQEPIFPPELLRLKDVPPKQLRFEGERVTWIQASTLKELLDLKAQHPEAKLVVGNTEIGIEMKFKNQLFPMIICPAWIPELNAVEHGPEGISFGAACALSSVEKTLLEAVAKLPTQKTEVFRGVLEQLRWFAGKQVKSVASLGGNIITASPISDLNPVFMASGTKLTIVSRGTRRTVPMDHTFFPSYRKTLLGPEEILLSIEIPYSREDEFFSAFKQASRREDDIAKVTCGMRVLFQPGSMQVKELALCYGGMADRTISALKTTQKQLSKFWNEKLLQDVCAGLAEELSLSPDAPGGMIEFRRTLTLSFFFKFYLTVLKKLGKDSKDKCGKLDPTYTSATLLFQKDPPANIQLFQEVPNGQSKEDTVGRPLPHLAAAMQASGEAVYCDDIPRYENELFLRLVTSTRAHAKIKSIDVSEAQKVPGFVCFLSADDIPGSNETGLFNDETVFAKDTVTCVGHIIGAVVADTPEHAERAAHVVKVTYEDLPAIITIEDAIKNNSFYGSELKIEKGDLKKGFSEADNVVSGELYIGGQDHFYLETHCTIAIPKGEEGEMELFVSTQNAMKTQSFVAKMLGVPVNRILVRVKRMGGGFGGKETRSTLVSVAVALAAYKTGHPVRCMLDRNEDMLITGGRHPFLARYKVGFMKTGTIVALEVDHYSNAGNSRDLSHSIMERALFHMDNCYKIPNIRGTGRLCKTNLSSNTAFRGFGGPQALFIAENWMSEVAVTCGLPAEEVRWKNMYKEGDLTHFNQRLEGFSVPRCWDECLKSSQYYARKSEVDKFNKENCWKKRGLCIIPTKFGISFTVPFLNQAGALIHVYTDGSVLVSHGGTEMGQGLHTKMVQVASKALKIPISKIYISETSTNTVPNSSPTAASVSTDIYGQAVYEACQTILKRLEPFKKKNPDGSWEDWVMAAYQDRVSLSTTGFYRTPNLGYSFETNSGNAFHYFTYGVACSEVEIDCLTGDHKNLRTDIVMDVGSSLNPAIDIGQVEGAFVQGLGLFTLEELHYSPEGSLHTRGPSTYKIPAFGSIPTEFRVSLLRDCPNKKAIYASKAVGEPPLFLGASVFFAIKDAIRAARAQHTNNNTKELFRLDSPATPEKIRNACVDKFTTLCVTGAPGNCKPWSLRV

Row | IC50 (μg/ml) ·OH [1] | IC50 (xanthine oxidase) [µM] | inhibition at 200 µg/mL (xanthine oxidase; xanthine oxidase, 200 μg/ml) [%] | Urinary excretion, phenolic acids [2] [nmol] | IC50 (μg/ml) DPPH· [3] | IC50 (μg/ml) DPPH· ([3]; listed as 3-hydroxyphenylacetic acid) [µg/mL] | IC50 (μg/ml) DPPH· ([3]; listed as 3-hydroxyphenylpropionic acid) [µg/mL] | IC50 (μg/ml) DPPH· ([3]; listed as 4-hydroxyphenylpropionic acid) [µg/mL] | Inhibition (%) at 200 μg/ml (xanthine oxidase; xanthine oxidase, 200 μg/ml) | Inhibition (%) at 200 μg/ml (xanthine oxidase; xanthine oxidase, 200 μg/ml, listed as epicatechin) | Urinary excretion, procyanidin (% to oral dose) [2] | Urinary excretion as share of the oral intake [2] | SMILES | inhibition at 200 µg/mL (xanthine oxidase) [%] | IC50 (μg/ml) DPPH· ([3]; listed as vanillic acid) [µg/mL]
1 | 803.47 ± 6.38^g μg/ml | > 1310 | 21.1 ± 1.78 | 46.98 ± 3.76 | 82.60 ± 1.95^h μg/ml | > 50 |  |  |  |  |  |  | O=C(O)Cc1cccc(O)c1 [3-Hydroxyphenylacetic acid, 3-hydroxyphenylacetic acid] |  | 
2 | 841.57 ± 4.45^h μg/ml | > 1200 | 27 ± 1.44 | 12.87 ± 3.06 | 77.83 ± 0.93^g μg/ml |  | > 50 |  |  |  |  |  | O=C(O)CCc1cccc(O)c1 [3-Hydroxyphenylpropionic acid, 3-hydroxyphenylpropionic acid] |  | 
3 | 813.87 ± 5.48^g μg/ml | > 1200 | 29.4 ± 0.75 | 60.54 ± 3.18 | 74.63 ± 1.40^f μg/ml |  |  | > 50 |  |  |  |  | O=C(O)CCc1ccc(O)cc1 [4-Hydroxyphenylpropionic acid, 4-hydroxyphenylpropionic acid] |  | 
4 | 121.27 ± 1.80^a μg/ml | 201 |  |  | 5.43 ± 0.10^a μg/ml |  |  |  | 78.63 ± 1.72^b % | higher than 50% | 0.21 ± 0.04 % to oral dose | 0.21 ± 0.04 % (mol/mol) | Oc1cc(O)c2c(c1)O[C@H](c1ccc(O)c(O)c1)[C@H](O)C2 [(-)-Epicatechin, (-)-epicatechin] |  | 
5 | 126.57 ± 2.58^a μg/ml | 119 |  |  | 5.86 ± 0.14^a μg/ml |  |  |  |  |  | 0.54 ± 0.09 % to oral dose | 0.54 ± 0.09 % (mol/mol) | Oc1cc(O)c2c(c1)OC1(c3ccc(O)c(O)c3)Oc3cc(O)c4c(c3C2C1O)OC(c1ccc(O)c(O)c1)C(O)C4 (stereo not drawn) [A-type dimer] |  | 
6 | 122.73 ± 2.35^a μg/ml | 86.6 | > 50 |  | 8.00 ± 0.18^b μg/ml |  |  |  |  |  | 0.43 ± 0.02 % to oral dose | 0.43 ± 0.02 % (mol/mol) | Oc1cc(O)c2c(c1)OC1(c3ccc(O)c(O)c3)Oc3cc(O)c4c(c3C2C1O)OC(c1ccc(O)c(O)c1)C(O)C4c1c(O)cc(O)c2c1OC(c1ccc(O)c(O)c1)C(O)C2 (stereo not drawn) [A-type trimer] |  | 
7 |  |  |  |  |  |  |  |  |  |  |  |  | Oc1ncnc2[nH]ncc12 [Allopurinol, reference compound] | 85.6 ± 3.13 | 
8 | 161.47 ± 3.31^c μg/ml | 531 |  | 20.67 ± 2.68 | 9.88 ± 0.55^c μg/ml |  |  |  |  |  |  |  | O=C(O)/C=C/c1ccc(O)c(O)c1 [Caffeic acid, caffeic acid] |  | 
9 | 186.53 ± 7.56^d μg/ml | 552 | > 50 | 27.22 ± 7.02 | 8.96 ± 0.18b^c μg/ml |  |  |  | 61.13 ± 0.81^f % |  |  |  | O=C(O)C1=C[C@@H](O)[C@@H](O)[C@H](O)C1 [Shikimic acid, shikimic acid] |  | 
10 | 256.43 ± 9.33^f μg/ml | 942 | 52.8 ± 1.57 | 39.01 ± 7.33 | 21.93 ± 1.25^e μg/ml |  |  |  |  |  |  |  | O=C(O)/C=C/c1cccc(O)c1 [m-Coumaric acid, m-coumaric acid] |  | 
11 | 220.13 ± 4.57^e μg/ml | 852 | 57.4 ± 0.62 | 13.89 ± 1.65 | 16.53 ± 0.65^d μg/ml |  |  |  |  |  |  |  | O=C(O)/C=C/c1ccc(O)cc1 [p-Coumaric acid, p-coumaric acid] |  | 

Row | SMILES | IC50 (μg/ml) ·OH [1] | IC50 (xanthine oxidase) [µM] | inhibition at 200 µg/mL (xanthine oxidase; xanthine oxidase, 200 μg/ml) [%] | Urinary excretion, phenolic acids [2] [nmol] | IC50 (μg/ml) DPPH· [3] | IC50 (μg/ml) DPPH· ([3]; listed as 3-hydroxyphenylacetic acid) [µg/mL] | IC50 (μg/ml) DPPH· ([3]; listed as 3-hydroxyphenylpropionic acid) [µg/mL] | IC50 (μg/ml) DPPH· ([3]; listed as 4-hydroxyphenylpropionic acid) [µg/mL] | Inhibition (%) at 200 μg/ml (xanthine oxidase; xanthine oxidase, 200 μg/ml) | Inhibition (%) at 200 μg/ml (xanthine oxidase; xanthine oxidase, 200 μg/ml, listed as epicatechin) | Urinary excretion, procyanidin (% to oral dose) [2] | Urinary excretion as share of the oral intake [2] | inhibition at 200 µg/mL (xanthine oxidase) [%] | IC50 (μg/ml) DPPH· ([3]; listed as vanillic acid) [µg/mL]
12 | COc1cc(C(=O)O)ccc1O [Vanillic acid, vanillic acid] | 897.33 ± 9.90^i μg/ml | > 1190 |  | 6.62 ± 2.79 | 86.06 ± 1.33^i μg/ml |  |  |  |  |  |  |  | 25 ± 1.47 | > 50
